From the supplement of paper PMC10307832

Tests used:
Assay in all cases: relative viability (nuclei count vs DMSO), 5 days (fraction); higher = more cells survive
[1] = test system: RERF-LC-KJ
How it was run: (§1)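 Cells from lung cancer lines were seeded into 1536-well plates and, one day later, dosed by pin tool. Treatments were either a single drug or a fixed dose of an anchor drug with five library-drug doses (not always all listed) in √10 steps. After 5 days, nuclei were stained in a one-step fixation (final 0.05% Triton X-100, 1% formaldehyde, 1 ug/ml Hoechst) and counted on 4× images, and relative viability is the treated-to-vehicle nuclei ratio, as the median of duplicate plates.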

[2] = test system: PC-14
How it was run: as §1

[3] = test system: NCI-H2405
How it was run: as §1

[4] = test system: NCI-H1666
How it was run: as §1

[5] = test system: NCI-H23
How it was run: as §1

[6] = test system: NCI-H2126
How it was run: as §1

[7] = test system: HCC-827
How it was run: as §1

[8] = test system: HCC-78
How it was run: as §1

[9] = test system: H3255
How it was run: as §1

[10] = test system: NCI-H650
How it was run: as §1

[11] = test system: NCI-H520
How it was run: as §1

[12] = test system: NCI-H661
How it was run: as §1

[13] = test system: NCI-H2087
How it was run: as §1

[14] = test system: NCI-H647
How it was run: as §1

[15] = test system: 201T
How it was run: as §1

[16] = test system: NCI-H1915
How it was run: as §1

[17] = test system: LCLC-97TM1
How it was run: as §1

[18] = test system: EPLC-272H
How it was run: as §1

[19] = test system: LC-2-ad
How it was run: as §1

[20] = test system: ChaGo-K-1
How it was run: as §1

[21] = test system: NCI-H2347
How it was run: as §1

[22] = test system: COR-L 105
How it was run: as §1

Q: With COc1nc(C)cnc1NS(=O)(=O)c1cccnc1-c1ccc(-c2nnco2)cc1 [Zibotentan] + COc1cc2c(Oc3ccc(NC(=O)C4(C(=O)Nc5ccc(F)cc5)CC4)cc3F)ccnc2cc1OCCCN1CCOCC1 [Foretinib] (partner 0.25 µM) as the compound, how does the relative viability ([1]; first compound 0.08 µM) read?
A: Its relative viability is 0.836.

Q: What about the relative viability ([1]; first compound 0.253 µM) of the same compound?
A: The relative viability was 0.885.

Q: And the relative viability ([1]; first compound 0.8 µM)?
A: The relative viability was 0.809.

Q: And the relative viability ([1]; first compound 2.53 µM)?
A: Its relative viability is 0.849.

Q: What about the relative viability ([2]; first compound 0.08 µM) of the same compound?
A: Its relative viability is 1.03.

Q: What about the relative viability ([2]; first compound 0.253 µM) of the same compound?
A: Its relative viability is 0.897.

Q: What about the relative viability ([2]; first compound 0.8 µM) of the same compound?
A: The relative viability was 0.924.

Q: What about the relative viability ([2]; first compound 2.53 µM) of the same compound?
A: The relative viability was 1.

Q: And the relative viability ([3]; first compound 0.08 µM)?
A: The relative viability was 1.1.

Q: What about the relative viability ([3]; first compound 0.253 µM) of the same compound?
A: Its relative viability is 1.02.

Q: What about the relative viability ([3]; first compound 0.8 µM) of the same compound?
A: Its relative viability is 1.04.

Q: And the relative viability ([3]; first compound 2.53 µM)?
A: The relative viability was 1.05.

Q: And the relative viability ([4]; first compound 0.08 µM)?
A: Its relative viability is 0.902.

Q: And the relative viability ([4]; first compound 0.253 µM)?
A: Its relative viability is 0.918.

Q: What about the relative viability ([4]; first compound 0.8 µM) of the same compound?
A: Its relative viability is 0.938.

Q: What about the relative viability ([4]; first compound 2.53 µM) of the same compound?
A: The relative viability was 0.972.

Q: What about the relative viability ([5]; first compound 0.08 µM) of the same compound?
A: The relative viability was 1.08.

Q: What about the relative viability ([5]; first compound 0.253 µM) of the same compound?
A: The relative viability was 0.766.

Q: And the relative viability ([5]; first compound 0.8 µM)?
A: The relative viability was 0.986.

Q: And the relative viability ([5]; first compound 2.53 µM)?
A: The relative viability was 1.17.

Q: What about the relative viability ([6]; first compound 0.08 µM) of the same compound?
A: The relative viability was 1.33.

Q: What about the relative viability ([6]; first compound 0.253 µM) of the same compound?
A: Its relative viability is 1.26.

Q: What about the relative viability ([6]; first compound 0.8 µM) of the same compound?
A: Its relative viability is 0.982.

Q: What about the relative viability ([6]; first compound 2.53 µM) of the same compound?
A: Its relative viability is 1.14.

Q: And the relative viability ([7]; first compound 0.08 µM)?
A: The relative viability was 1.06.

Q: What about the relative viability ([7]; first compound 0.253 µM) of the same compound?
A: Its relative viability is 1.01.

Q: What about the relative viability ([7]; first compound 0.8 µM) of the same compound?
A: Its relative viability is 1.11.

Q: And the relative viability ([7]; first compound 2.53 µM)?
A: The relative viability was 1.09.

Q: And the relative viability ([8]; first compound 0.08 µM)?
A: Its relative viability is 0.535.

Q: What about the relative viability ([8]; first compound 0.253 µM) of the same compound?
A: The relative viability was 0.484.

Q: And the relative viability ([8]; first compound 0.8 µM)?
A: The relative viability was 0.588.

Q: And the relative viability ([8]; first compound 2.53 µM)?
A: Its relative viability is 0.518.

Q: What about the relative viability ([9]; first compound 0.08 µM) of the same compound?
A: The relative viability was 0.966.

Q: And the relative viability ([9]; first compound 0.253 µM)?
A: The relative viability was 0.802.

Q: And the relative viability ([9]; first compound 0.8 µM)?
A: The relative viability was 0.945.

Q: And the relative viability ([9]; first compound 2.53 µM)?
A: The relative viability was 0.987.

Q: And the relative viability ([10]; first compound 0.08 µM)?
A: Its relative viability is 1.1.

Q: And the relative viability ([10]; first compound 0.253 µM)?
A: The relative viability was 0.877.

Q: And the relative viability ([10]; first compound 0.8 µM)?
A: Its relative viability is 1.07.

Q: What about the relative viability ([10]; first compound 2.53 µM) of the same compound?
A: Its relative viability is 0.994.

Q: What about the relative viability ([11]; first compound 0.08 µM) of the same compound?
A: Its relative viability is 0.811.

Q: What about the relative viability ([11]; first compound 0.253 µM) of the same compound?
A: Its relative viability is 0.738.

Q: And the relative viability ([11]; first compound 0.8 µM)?
A: Its relative viability is 0.586.

Q: What about the relative viability ([11]; first compound 2.53 µM) of the same compound?
A: Its relative viability is 0.742.

Q: What about the relative viability ([12]; first compound 0.08 µM) of the same compound?
A: The relative viability was 1.01.

Q: And the relative viability ([12]; first compound 0.253 µM)?
A: The relative viability was 0.969.

Q: What about the relative viability ([12]; first compound 0.8 µM) of the same compound?
A: Its relative viability is 0.995.

Q: What about the relative viability ([12]; first compound 2.53 µM) of the same compound?
A: Its relative viability is 1.01.

Q: And the relative viability ([13]; first compound 0.08 µM)?
A: Its relative viability is 1.22.

Q: What about the relative viability ([13]; first compound 0.253 µM) of the same compound?
A: Its relative viability is 1.04.

Q: And the relative viability ([13]; first compound 0.8 µM)?
A: Its relative viability is 1.16.

Q: And the relative viability ([13]; first compound 2.53 µM)?
A: Its relative viability is 1.04.

Q: And the relative viability ([14]; first compound 0.08 µM)?
A: The relative viability was 1.13.

Q: And the relative viability ([14]; first compound 0.253 µM)?
A: The relative viability was 0.996.

Q: What about the relative viability ([14]; first compound 0.8 µM) of the same compound?
A: Its relative viability is 1.06.

Q: What about the relative viability ([14]; first compound 2.53 µM) of the same compound?
A: Its relative viability is 1.29.

Q: What about the relative viability ([15]; first compound 0.08 µM) of the same compound?
A: The relative viability was 1.16.

Q: And the relative viability ([15]; first compound 0.253 µM)?
A: Its relative viability is 0.956.

Q: And the relative viability ([15]; first compound 0.8 µM)?
A: The relative viability was 1.04.

Q: What about the relative viability ([15]; first compound 2.53 µM) of the same compound?
A: The relative viability was 1.15.

Q: And the relative viability ([16]; first compound 0.08 µM)?
A: Its relative viability is 1.16.

Q: And the relative viability ([16]; first compound 0.253 µM)?
A: The relative viability was 1.1.

Q: And the relative viability ([16]; first compound 0.8 µM)?
A: The relative viability was 1.06.

Q: What about the relative viability ([16]; first compound 2.53 µM) of the same compound?
A: Its relative viability is 1.07.

Q: What about the relative viability ([17]; first compound 0.08 µM) of the same compound?
A: Its relative viability is 1.01.

Q: What about the relative viability ([17]; first compound 0.253 µM) of the same compound?
A: Its relative viability is 0.891.

Q: What about the relative viability ([17]; first compound 0.8 µM) of the same compound?
A: The relative viability was 1.

Q: And the relative viability ([17]; first compound 2.53 µM)?
A: Its relative viability is 0.926.

Q: And the relative viability ([18]; first compound 0.08 µM)?
A: Its relative viability is 0.696.

Q: What about the relative viability ([18]; first compound 0.253 µM) of the same compound?
A: The relative viability was 0.641.

Q: And the relative viability ([18]; first compound 0.8 µM)?
A: Its relative viability is 0.901.

Q: And the relative viability ([18]; first compound 2.53 µM)?
A: The relative viability was 0.787.

Q: And the relative viability ([19]; first compound 0.08 µM)?
A: The relative viability was 1.02.

Q: And the relative viability ([19]; first compound 0.8 µM)?
A: Its relative viability is 0.955.

Q: And the relative viability ([19]; first compound 2.53 µM)?
A: The relative viability was 0.954.

Q: What about the relative viability ([20]; first compound 0.08 µM) of the same compound?
A: The relative viability was 0.941.

Q: What about the relative viability ([20]; first compound 0.253 µM) of the same compound?
A: The relative viability was 0.926.

Q: And the relative viability ([20]; first compound 0.8 µM)?
A: The relative viability was 0.977.

Q: What about the relative viability ([20]; first compound 2.53 µM) of the same compound?
A: Its relative viability is 0.841.

Q: What about the relative viability ([21]; first compound 0.08 µM) of the same compound?
A: The relative viability was 0.995.

Q: And the relative viability ([21]; first compound 0.253 µM)?
A: Its relative viability is 0.896.

Q: And the relative viability ([21]; first compound 0.8 µM)?
A: Its relative viability is 0.947.

Q: What about the relative viability ([21]; first compound 2.53 µM) of the same compound?
A: The relative viability was 0.655.

Q: And the relative viability ([22]; first compound 0.08 µM)?
A: The relative viability was 1.31.

Q: And the relative viability ([22]; first compound 0.253 µM)?
A: Its relative viability is 0.996.

Q: What about the relative viability ([22]; first compound 0.8 µM) of the same compound?
A: Its relative viability is 1.1.

Q: And the relative viability ([22]; first compound 2.53 µM)?
A: The relative viability was 1.03.
